# Source: patent US10517889B2, “Modulators of SMAD7 expression” (Ionis Pharmaceuticals, Inc., priority 2017, dated 2019)
# Strand notation (5' to 3'): a small letter for the sugar, then the base; units joined by * are phosphorothioate-linked, units joined directly phosphodiester-linked; [ ] holds rarer units or linkages, { } end groups; capitals alone tell only the bases. k = constrained ethyl (cEt); [5mC] = 5-methylcytosine; d = 2'-deoxy (DNA)
# System: human SMAD7 mRNA
# Experiment: Antisense inhibition of human SMAD7 mRNA expression in Hep3B cells by 3-10-3 cEt gapmers, 10,000 nM, electroporation (Example 2)
# Type: cell-based
# Settings: Hep3B cells, electroporation with 10,000 nM antisense oligonucleotide, approximately 24 hours, SMAD7 mRNA by RT-PCR (RTS5062), relative to untreated control cells
# Method in brief: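 Hep3B, 20,000 cells/well; electroporation, 10,000 nM ASO; ~24 h. Readout: SMAD7 mRNA by qRT-PCR (RTS5062), RIBOGREEN-normalised; % inhibition vs untreated.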
row,Substance,% Inhibition
1,830117 (k[5mC]*k[5mC]*kA*d[5mC]*d[5mC]*d[5mC]*dT*dA*dA*dA*d[5mC]*dT*dG*kA*kG*k[5mC]; antisense) [compound 830117],5%
2,830118 (kT*k[5mC]*k[5mC]*d[5mC]*dA*d[5mC]*d[5mC]*d[5mC]*dT*dA*dA*dA*d[5mC]*kT*kG*kA; antisense) [compound 830118],0%
3,830119 (k[5mC]*k[5mC]*kG*dA*d[5mC]*d[5mC]*dT*dT*d[5mC]*d[5mC]*dT*d[5mC]*d[5mC]*k[5mC]*kA*k[5mC]; antisense) [compound 830119],24%
4,830120 (kG*k[5mC]*k[5mC]*dG*dA*d[5mC]*d[5mC]*dT*dT*d[5mC]*d[5mC]*dT*d[5mC]*k[5mC]*k[5mC]*kA; antisense) [compound 830120],27%
5,830123 (antisense kG*kG*k[5mC]*dA*d[5mC]*d[5mC]*dA*d[5mC]*dA*dT*dT*dT*dT*k[5mC]*kA*k[5mC]) [compound 830123],44%
6,830124 (antisense k[5mC]*k[5mC]*kG*dA*dG*dG*d[5mC]*dA*d[5mC]*d[5mC]*dA*d[5mC]*dA*kT*kT*kT) [compound 830124],27%
7,830125 (antisense kT*k[5mC]*k[5mC]*dG*dA*dG*dG*d[5mC]*dA*d[5mC]*d[5mC]*dA*d[5mC]*kA*kT*kT) [compound 830125],46%
8,830126 (antisense k[5mC]*kT*k[5mC]*d[5mC]*dG*dA*dG*dG*d[5mC]*dA*d[5mC]*d[5mC]*dA*k[5mC]*kA*kT) [compound 830126],34%
9,830127 (antisense k[5mC]*k[5mC]*kT*d[5mC]*d[5mC]*dG*dA*dG*dG*d[5mC]*dA*d[5mC]*d[5mC]*kA*k[5mC]*kA) [compound 830127],62%
10,830129 (antisense k[5mC]*kA*k[5mC]*d[5mC]*dT*d[5mC]*d[5mC]*dG*dA*dG*dG*d[5mC]*dA*k[5mC]*k[5mC]*kA) [compound 830129],41%
11,830130 (antisense k[5mC]*k[5mC]*kA*d[5mC]*d[5mC]*dT*d[5mC]*d[5mC]*dG*dA*dG*dG*d[5mC]*kA*k[5mC]*k[5mC]) [compound 830130],32%
12,830132 (antisense kT*kA*k[5mC]*d[5mC]*d[5mC]*dG*d[5mC]*d[5mC]*d[5mC]*dA*d[5mC]*dT*d[5mC]*k[5mC]*k[5mC]*k[5mC]) [compound 830132],8%
13,830133 (antisense kA*k[5mC]*kA*dA*dT*d[5mC]*dT*d[5mC]*d[5mC]*dT*dG*dG*dA*kA*kG*k[5mC]) [compound 830133],26%
14,830134 (antisense kA*kG*kT*dA*d[5mC]*dA*dA*dT*d[5mC]*dT*d[5mC]*d[5mC]*dT*kG*kG*kA) [compound 830134],61%
15,830136 (antisense kG*kA*kA*dA*dG*dT*dA*d[5mC]*dA*dA*dT*d[5mC]*dT*k[5mC]*k[5mC]*kT) [compound 830136],64%
16,830139 (antisense kT*kG*kG*dA*dG*dT*dT*dG*d[5mC]*dA*dT*dG*d[5mC]*k[5mC]*kT*kT) [compound 830139],45%
17,830140 (antisense kT*k[5mC]*k[5mC]*dT*dA*dA*dG*d[5mC]*dT*dA*d[5mC]*dT*dT*kG*kG*kT) [compound 830140],12%
18,830141 (antisense kG*kG*k[5mC]*dA*dT*dT*dA*dG*dA*dG*dA*d[5mC]*d[5mC]*kT*k[5mC]*kA) [compound 830141],58%
19,830143 (antisense kG*kG*kT*dG*dT*dG*d[5mC]*dA*d[5mC]*d[5mC]*dA*dG*dG*kT*kG*kA) [compound 830143],62%
20,830145 (antisense kT*kG*kG*dG*dT*dG*dT*dG*d[5mC]*dA*d[5mC]*d[5mC]*dA*kG*kG*kT) [compound 830145],47%
21,830146 (antisense kT*kG*kG*dT*d[5mC]*dT*dT*d[5mC]*dA*d[5mC]*d[5mC]*dA*dG*kG*kG*kT) [compound 830146],62%
22,830147 (antisense kG*kA*k[5mC]*dT*dG*dG*dT*d[5mC]*dT*dT*d[5mC]*dA*d[5mC]*k[5mC]*kA*kG) [compound 830147],0%
23,830148 (antisense kG*kG*kA*d[5mC]*dT*dG*dG*dT*d[5mC]*dT*dT*d[5mC]*dA*k[5mC]*k[5mC]*kA) [compound 830148],19%
24,830149 (antisense kA*kG*kG*dA*d[5mC]*dT*dG*dG*dT*d[5mC]*dT*dT*d[5mC]*kA*k[5mC]*k[5mC]) [compound 830149],47%
25,830150 (antisense k[5mC]*kA*kG*dT*dG*dG*dT*dG*dA*d[5mC]*d[5mC]*dT*d[5mC]*k[5mC]*k[5mC]*kT) [compound 830150],51%

row,Substance,% Inhibition
1,830151 (antisense kG*k[5mC]*k[5mC]*dA*dG*dT*dG*dG*dT*dG*dA*d[5mC]*d[5mC]*kT*k[5mC]*k[5mC]) [compound 830151],45%
2,830152 (antisense k[5mC]*k[5mC]*k[5mC]*dG*dG*dA*dG*dA*dG*dG*dA*dA*dG*k[5mC]*k[5mC]*kT) [compound 830152],23%
3,830153 (antisense kG*k[5mC]*k[5mC]*dT*d[5mC]*dA*dG*d[5mC]*dA*dG*dT*dT*dA*kA*kT*kA) [compound 830153],21%
4,830154 (antisense kG*kT*kG*d[5mC]*d[5mC]*dT*d[5mC]*dA*dG*d[5mC]*dA*dG*dT*kT*kA*kA) [compound 830154],48%
5,830155 (antisense kT*kG*kT*dG*d[5mC]*d[5mC]*dT*d[5mC]*dA*dG*d[5mC]*dA*dG*kT*kT*kA) [compound 830155],38%
6,830156 (antisense k[5mC]*kT*kG*dT*dG*d[5mC]*d[5mC]*dT*d[5mC]*dA*dG*d[5mC]*dA*kG*kT*kT) [compound 830156],48%
7,830158 (antisense kA*kA*kT*dT*dG*dA*dG*dA*dA*d[5mC]*dT*dG*dT*kG*k[5mC]*k[5mC]) [compound 830158],43%
8,830159 (antisense k[5mC]*k[5mC]*kA*d[5mC]*dT*dA*dA*dA*dT*dT*dG*dA*dG*kA*kA*k[5mC]) [compound 830159],42%
9,830160 (antisense kT*kG*kG*dT*dG*dT*dG*dT*dT*dA*dA*d[5mC]*d[5mC]*kA*k[5mC]*kT) [compound 830160],54%
10,830161 (antisense kA*kG*kG*dT*dG*dA*dA*dA*dG*dT*dT*dA*dT*k[5mC]*kA*k[5mC]) [compound 830161],13%
11,830162 (antisense kA*k[5mC]*kA*dA*dG*dG*dT*dG*dA*dA*dA*dG*dT*kT*kA*kT) [compound 830162],20%
12,830164 (antisense kG*k[5mC]*kT*dG*d[5mC]*dT*dT*dG*dG*d[5mC]*d[5mC]*dT*dT*kA*k[5mC]*k[5mC]) [compound 830164],38%
13,830165 (antisense kA*k[5mC]*kA*dG*d[5mC]*dT*dG*dT*dA*d[5mC]*d[5mC]*dA*dG*kG*kG*k[5mC]) [compound 830165],58%
14,830166 (antisense k[5mC]*kA*k[5mC]*dA*dG*d[5mC]*dT*dG*dT*dA*d[5mC]*d[5mC]*dA*kG*kG*kG) [compound 830166],48%
15,830167 (antisense kT*kT*kT*dA*d[5mC]*dA*d[5mC]*dA*d[5mC]*d[5mC]*d[5mC]*d[5mC]*dA*kG*kG*kG) [compound 830167],39%
16,830169 (antisense k[5mC]*kT*k[5mC]*dT*dG*dT*dT*dT*dG*dG*dA*d[5mC]*dA*kA*kG*kT) [compound 830169],58%
17,830171 (antisense kT*kG*k[5mC]*dT*d[5mC]*dT*dG*dT*dT*dT*dG*dG*dA*k[5mC]*kA*kA) [compound 830171],26%
18,830172 (antisense k[5mC]*kT*kG*d[5mC]*dT*d[5mC]*dT*dG*dT*dT*dT*dG*dG*kA*k[5mC]*kA) [compound 830172],27%
19,830173 (antisense kA*kG*kA*dG*dG*dT*dG*dT*dT*dT*d[5mC]*d[5mC]*dA*kA*kG*kG) [compound 830173],48%
20,830174 (antisense kG*kA*kG*dA*dG*dG*dT*dG*dT*dT*dT*d[5mC]*d[5mC]*kA*kA*kG) [compound 830174],49%
21,830175 (antisense kT*k[5mC]*kT*d[5mC]*dA*dA*d[5mC]*dA*dG*dA*d[5mC]*d[5mC]*dA*k[5mC]*kA*k[5mC]) [compound 830175],44%
22,830176 (antisense kA*kT*kT*d[5mC]*dT*d[5mC]*dA*dA*d[5mC]*dA*dG*dA*d[5mC]*k[5mC]*kA*k[5mC]) [compound 830176],61%
23,830177 (antisense k[5mC]*kA*kG*d[5mC]*d[5mC]*d[5mC]*dT*dT*dT*d[5mC]*dA*d[5mC]*d[5mC]*k[5mC]*k[5mC]*kT) [compound 830177],40%
24,830178 (antisense kA*k[5mC]*kG*dA*d[5mC]*dA*dG*d[5mC]*d[5mC]*dT*dG*dG*dA*kG*kA*k[5mC]) [compound 830178],32%
